The values that follow are results of earlier work, collected in patent publication US12343434B2, “Hybrid membrane camouflaged nanomedicine loaded with oxidative phosphorylation inhibitor and preparing method thereof” (Henan University, priority 2021, dated 2025).

The conditions of this data set: background statement.

Take `CCc1n(CC(=O)O[C@@H]2C[C@H](C)CC[C@H]2C(C)C)c2ccccc2[n+]1C.[Cl-]` [Gboxin, 1-carboxymethyl-2-ethyl-3-methyl-1H-benzimidazole-3-ammonium L-menthol ester chloride]: the blood half-life result was “extremely short”.
